Experiment [1] deals with T1, slr2103 (Synechocystis sp. PCC 6803, UniProt P73931).
T1 construct: cloned in pQE-80L, expressed in E. coli; intact cells fed with substrate
T1 sequence (P73931 1-294): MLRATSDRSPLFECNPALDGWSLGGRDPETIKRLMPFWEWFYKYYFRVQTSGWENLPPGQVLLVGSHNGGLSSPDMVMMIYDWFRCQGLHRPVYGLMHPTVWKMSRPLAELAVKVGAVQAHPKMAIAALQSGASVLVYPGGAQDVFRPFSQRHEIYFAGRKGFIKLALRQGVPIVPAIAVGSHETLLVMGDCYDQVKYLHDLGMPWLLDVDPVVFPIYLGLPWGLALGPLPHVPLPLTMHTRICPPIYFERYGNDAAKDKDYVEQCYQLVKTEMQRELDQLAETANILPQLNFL
Description: feeding of E. coli cells expressing slr2103, acyl-DPQ product by LC-MS/MS. It is filed as cell-based. To be noted: supplied as decylplastoquinone (1500 nmol in 5 ml), reduced in cells; acyl donor from E. coli; 30 C, 3 h.

Another experiment addresses T2, A0918 (Picosynechococcus sp. PCC 7002, UniProt B1XIY0).
T2 construct: gene plsC; amplified from genomic DNA, cloned in pQE-80L, expressed in E. coli; microsomal membrane fraction
T2 sequence (B1XIY0 1-291): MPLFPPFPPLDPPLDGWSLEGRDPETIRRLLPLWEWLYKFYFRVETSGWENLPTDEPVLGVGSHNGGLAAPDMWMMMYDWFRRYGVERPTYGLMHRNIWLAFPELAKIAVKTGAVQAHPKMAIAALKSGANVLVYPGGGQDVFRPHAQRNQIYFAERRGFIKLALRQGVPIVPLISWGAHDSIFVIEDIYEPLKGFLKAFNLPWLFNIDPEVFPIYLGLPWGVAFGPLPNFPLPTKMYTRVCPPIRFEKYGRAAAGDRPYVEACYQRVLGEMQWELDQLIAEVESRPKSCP
Description: in vitro acyltransferase assay with E. coli microsomal membranes, TAG product by MS. It is filed as biochemical. To be noted: 50 uM palmitoyl-CoA, 200 uM substrate, 20 mM MgCl2, 0.1% CHAPS, pH 7.4, 37 C, 20 min.

The target of experiment [2] is T1, slr2103. The experiment is described as follows: feeding of E. coli cells expressing slr2103, TAG product by MS. It is filed as cell-based. Conditions: 1500 nmol substrate in 5 ml; acyl donor from E. coli; 30 C, 3 h.

Molecules are shown by their SMILES.

The source of these data is paper PMC12048435, “Multifunctional acyltransferases involved in the synthesis of triacylglycerol, fatty acid phytyl esters and plastoquinol esters in cyanobacteria” (Planta, 2025).

On to `CCCCCCCCCCc1cc(O)c(C)c(C)c1O` [DPQ, decylplastoquinol], for which, at slr2103 [1], the “feeding of E. coli cells expressing slr2103, acyl-DPQ product by LC-MS/MS” value is recorded as “slr2103 is capable of acylating one of the quinol hydroxyl groups of DPQ”.
On to `CCCCCCCC(=O)OCC(CO)OC(=O)CCCCCCC` (stereo not drawn) [dioctanoin], for which, at A0918, the “in vitro acyltransferase assay with E. coli microsomal membranes, TAG product by” value was “confirming that A0918 harbors acyltransferase activity for the synthesis of TAG and FAPE”. Further, the “feeding of E. coli cells expressing slr2103, TAG product by MS” value at slr2103 [2] is reported as “Accumulation of TAG after supplementation of E. coli cells expressing slr2103 with dioctanoin”.
